Assay results published in patent US7533723B2, “Well bore treatment fluid” (Schlumberger Technology Corporation, priority 2003, dated 2009).
Where “and” joins values, the source holds several entries; their conditions need not be identical. Identical values can stand only once.

What was measured:
[1] = Well-mixed bottle tests: dilution of treatment fluid with brine or oil; format: physicochemical; details: T=25° C.
Description: In this case, the DPM solvent is 100% miscible with oil or brine.
Note that the oil and the treatment fluid are miscible.

[2] = Description: For the case of abietic acid, calcium abietate (Dertocal), polymerised calcium abietate (MERIGRAL™) and the phenolic modified resins (RESENOL™ and GRANOLITE™), insoluble residues were removed by filtration and the numbers given in Table 1 relate to the soluble fraction after filtration.
[3] = Abietate in pure diesel, Berea sandstone water and oil zones; details: 30 wt % dissolved in diesel, 50° C.
Description: The plot of FIG. 9 deals with the performance in water zones at 50° C. (Berea sandstone, k 100-150 mD; brine: 5 wt % NH4Cl in DI water) of the oil-based system (no miscibility with water/brine). The system contained 30 wt % calcium abietate dissolved in diesel.
The damage in the water zone was a function of the oil saturation prior to treatment. […] Since the brine and diesel-based treatment fluid are immiscible, it is unlikely that the precipitation of waxy solids accounts for the damage observed. Whilst it is possible that some minor precipitation may occur at interfaces, we suspect a viscous oil or viscous interface effect may be playing a role in reducing kbrine after backflow to steady-state.

[4] = remark: listed apart in the source
Description: Sandpack experiments were performed to evaluate the recovery of oil permeability after brine-induced precipitation.
The permeability ratio K(oil)/initial K(brine) is shown on the vertical y axis and this is plotted against the brine saturation (vol %) in the core.
The dark curve plotted with diamonds relates to the experiment wherein the starting point is a 10-ft pack saturated with brine (Sw=1, brine permeability Kw=960 mD). Oil is then flushed through it until the steady state is reached. During this operation, the water saturation in the pack decreases as water is mobilized and removed by the flow of oil. The oil permeability (Ko) is determined regularly during the process. The ratio K(oil)/initial K(brine) is then calculated and plotted against the water saturation. The oil permeability at steady state is 1300 mD, which gives Ko/Kwi=1.35 at Sw=29.5%.
The lighter curve plotted with triangles relates to the experiment wherein the 10-ft pack is saturated with brine (Sw=1, brine permeability Kw=800 mD). Half of it is then treated with 5 wt % resinate (calcium abietate, Dertocal) dissolved in solvent (DPM). Brine is then backflowed through the pack until the steady state is reached. […] Then, oil is flushed through the pack until the steady state is reached (Ko=1061 mD). Again, the ratio K(oil)/initial K(brine) is calculated and plotted against the water saturation. […]

[5] = Berea sandstone permeability experiments; details: 10 wt % in DPM, brine postflush, 20 psi/ft
Description: An experiment was performed in a 1 foot 250 mD Berea sandstone core at Sw=1, using a process of treatment fluid injection followed by follow-up brine injection.
Treatment fluid used: 10 wt % resinate (Calcium abietate, Dertocal) in solvent (DPM). The volume of the treated zone was ⅔ of the pore volume (⅓ treatment fluid+⅓ brine).
Brine permeability before treatment: 250 mD.
Brine permeability in the treated zone was reduced by 70%. The biggest damage (precipitation) appeared near the wellbore (region 1) where the reduction was 73%.
The biggest damage appeared near the wellbore (regions 1) where the reduction was 60%.

[6] = Brine follow-up treatments, series of 3 treatments in 2-ft sand pack; details: 10 wt % in DPM
Description: The selective response to injections of treatment fluid and brine was carried out in porous media.
An experiment was performed in a 2-ft sand pack at ambient temperature and Sw=1. The experiment consisted in a series of 3 pack treatments (using a process of treatment fluid injection followed by brine injection), followed by brine backflow between each of the three treatments. The fluid used was 10 wt % resinate (calcium abietate, Dertocal) dissolved in DPM.
The volume of the treated zone is ⅔ of the pore volume (⅓ treatment fluid+⅓ brine). As shown, permeability reduced with each treatment.

[7] = Selective response in porous media, two feet long sandpacks (water zone / oil zone); details: for Brine permeability reduction corrected for treatment depth: water zone
Description: Candidate solvent-based treatment fluids were evaluated in porous media. […] Duplicate two feet long sandpacks were prepared using a specific blend of sand and silica flour.
Experiments were used to evaluate a treatment fluid containing 5 wt % calcium abietate pre-dissolved in a DPM/brine mixture.

Molecule: CC(C)C1=CC2=CCC3[C@](C)(CCC[C@@]3(C)C(=O)O)C2CC1 (stereo partly drawn) [Abietic Acid, Abietic acid]
- Behaviour on dilution with brine: [brine] at precipitation ([1]; 5 wt % dissolved in pure DPM): [brine] = 33 vol %
- Solubility, Brine wt % [2]: 0.01 wt %
- Solubility, Solvent wt % (solvent chemistry) [2]: ≧30 (DPM^(3)), ≧30 (EB^(4)) wt %

Molecule: CC(C)C1=CC2=CCC3C(C)(C(=O)O)CCCC3(C)C2CC1 (stereo not drawn) [Ca Abietate, Calcium abietate]
- % retained koil in oil zones [3]: 85-100%
- kbrine reduction in water zones ([3]; So(pre-treatment) range 0-25%, brine 5 wt % NH4Cl): ≥ 70%
- Brine permeability reduction ([4]; 5 wt % in DPM, half of 10-ft pack treated, brine backflow to steady state): 25%
- Oil permeability Ko at steady state after oil flush ([4]; not told): 1061 mD
- Brine permeability reduction in the treated zone ([5]; T=60° C.): 33.5%
- Brine permeability reduction near the wellbore (regions 1) ([5]; T=60° C.): 60%
- Brine permeability reduction in the treated zone ([5]; ambient temperature): 70%
- Brine permeability reduction near the wellbore (region 1) ([5]; ambient temperature): 73%
- Behaviour on dilution with brine: [brine] at precipitation ([1]; 5 wt % dissolved in pure DPM): [brine] = 23 vol %
- Solubility, Brine wt % [2]: 0.01 wt %
- % Reduction (cumulative) ([6]; after treatment I): 51%
- % Reduction (cumulative) ([6]; after treatment II): 72%
- % Reduction (cumulative) ([6]; after treatment III): 88%
- Brine permeability reduction corrected for treatment depth ([7]; 5 wt % pre-dissolved in DPM/brine mixture): 54%
- Brine permeability reduction corrected for treatment depth ([7]; 20 wt % in DPM, 20 psi/ft, 25° C.): 65% and 69%
- Effect on permeability to oil ([7]; not told): no effect on permeability to oil

Molecule: CC12CCC(CC1=O)C2(C)C (stereo not drawn) [Camphor, camphor]
- Solubility, Brine wt % [2]: very
- Solubility, Oil wt % [2]: ≧50.0^(7) wt %
- Solubility, Solvent wt % (solvent chemistry) [2]: ≧50.0 (DPM^(3)) wt %

Molecule: calcium neo-decanoate [Ca neo-Decanoate (dry^B)]
- Behaviour on dilution with brine: [brine] at precipitation ([1]; 10 wt % dissolved in pure DPM): [brine] = 67 vol %

Molecule: calcium neo-tridecanoate [Ca neo-Tridecanoate (dry)]
- Behaviour on dilution with brine: [brine] at precipitation ([1]; 10 wt % dissolved in pure DPM): [brine] = 70 vol %
